# Legend:
# [1] = target: T1, Hog gastric H^+,K^+ -ATPase (Sus scrofa, UniProt P19156); test: In vitro inhibition of gastric H^+,K^+-ATPase; type: biochemical; conditions: pH 7,4; 30 minutes of incubation; 10 μg membrane protein (GI-fraction); read-out: concentration at half-maximal inhibition (IC50) (converted)
# T1 construct: from tissue; host or cells: hog gastric membranes (GI-fraction)
# Procedure: I. In vitro inhibition of gastric H^+,K^+ -ATPase
# Hog gastric H^+,K^+ -ATPase was purified according to Saccomani et al., Biochim. Biophys. Acta 465, 311-330, 1977. 10 μg of membrane protein (GI-fraction in the reference listed above) was incubated with 2 mmol/l of piperazine-N,N'-bis-(2-ethane sulfonic acid) buffer pH 7,4 and the test compound in concentrations 10^-7 -10^-4 M in a final volume of 1 ml. (The test compound was dissolved in methanol. Aliquots of these stock solutions were diluted to a final methanol concentration below 1%, which on its own had no effect on the enzyme activities.) After 30 minutes of incubation, the remaining H^+,K^+ -ATPase activity was determined, according to Wallmark et al., Biochim. Biophys. Acta, 728, 31-38, 1983. A dose-response curve was constructed and the concentration at half-maximal inhibition (IC50) could be determined.
# gastric acid secretion = test: Inhibiting effect in vivo on gastric acid secretion in conscious dog; conditions: 4 μmol/kg; orally by stomach tube; histamine-induced; gastric fistula dogs
# Procedure: II. Inhibiting effect in vivo on gastric acid secretion in conscious dog
# Chronic gastric fistula dogs were used. These dogs have been surgically provided with a gastric cannula in the stomach and a duodenal fistula used for direct intraduodenal administration of test compounds. Following a 4 weeks' recovery period after surgery, tests were performed once a week on each dog. Food and water were withdrawn 18 hours before each test.
# The test compound was suspended in 0.5% Methocel® (90 HG, 15.000, Dow Chem Corp.), the pH was immediately adjusted to about 4 by addition of hydrochloric acid and the suspension administered orally by using a stomach tube. After 1 hour gastric acid secretion was induced by continuous infusion of histamine at individual doses (400-600 nmol/kg, h), resulting in approx. 90% of maximal secretion of gastric acid. The gastric juice was collected by free flow from the gastric cannula in consecutive 30 minutes samples for 2 hours. The samples were titrated to pH 7.0 with 0.1M NaOH using a Radiometer automatic titrator and the acid output was calculated. The percent inhibition of acid secretion was calculated by comparing in each dog the acid output in the tests to the acid output in control tests when only the vehicle was given. The peak inhibitory effect for each compound was determined. […]
# [2] = test system: ethanol-induced gastric lesions; test: In vivo cytoprotective effect: effect on ethanol-induced gastric lesions in the rat; design: species or system rat (female Spraque-Dawley); conditions: for total lengths of lesions in the stomachs: 20 μmol/kg oral
# Procedure: III. In vivo cytoprotective effect: Effect on ethanol-induced gastric lesions in the rat
# Two groups of female Spraque-Dawley rats (190-220 g) were used, one for the test compound and one for the control experiment. Food, but not water, was removed 24 h before the experiments.
# The animals in the test group were treated orally with the test compound dissolved in 0.01M HCl immediately before the test and the animals in the control group were given the vehicle (0.01M HCl) in a dose of 1 ml/kg.
# Five or thirty minutes later the rats were given orally 1 ml of absolute ethanol (a standard agent for inducing gastric mucosal lesions).
# Thirty minutes later the rats were killed by carbon dioxide asphyxiation, their stomachs dissected out and the gastric mucosae were examined for the presence of necrotic lesions. The total lengths of the lesions in the stomachs were measured in the test group and in the control group, in both cases treated five and thirty minutes before with ethanol.
# T1 sequence (P19156 2-1034 limits assumed): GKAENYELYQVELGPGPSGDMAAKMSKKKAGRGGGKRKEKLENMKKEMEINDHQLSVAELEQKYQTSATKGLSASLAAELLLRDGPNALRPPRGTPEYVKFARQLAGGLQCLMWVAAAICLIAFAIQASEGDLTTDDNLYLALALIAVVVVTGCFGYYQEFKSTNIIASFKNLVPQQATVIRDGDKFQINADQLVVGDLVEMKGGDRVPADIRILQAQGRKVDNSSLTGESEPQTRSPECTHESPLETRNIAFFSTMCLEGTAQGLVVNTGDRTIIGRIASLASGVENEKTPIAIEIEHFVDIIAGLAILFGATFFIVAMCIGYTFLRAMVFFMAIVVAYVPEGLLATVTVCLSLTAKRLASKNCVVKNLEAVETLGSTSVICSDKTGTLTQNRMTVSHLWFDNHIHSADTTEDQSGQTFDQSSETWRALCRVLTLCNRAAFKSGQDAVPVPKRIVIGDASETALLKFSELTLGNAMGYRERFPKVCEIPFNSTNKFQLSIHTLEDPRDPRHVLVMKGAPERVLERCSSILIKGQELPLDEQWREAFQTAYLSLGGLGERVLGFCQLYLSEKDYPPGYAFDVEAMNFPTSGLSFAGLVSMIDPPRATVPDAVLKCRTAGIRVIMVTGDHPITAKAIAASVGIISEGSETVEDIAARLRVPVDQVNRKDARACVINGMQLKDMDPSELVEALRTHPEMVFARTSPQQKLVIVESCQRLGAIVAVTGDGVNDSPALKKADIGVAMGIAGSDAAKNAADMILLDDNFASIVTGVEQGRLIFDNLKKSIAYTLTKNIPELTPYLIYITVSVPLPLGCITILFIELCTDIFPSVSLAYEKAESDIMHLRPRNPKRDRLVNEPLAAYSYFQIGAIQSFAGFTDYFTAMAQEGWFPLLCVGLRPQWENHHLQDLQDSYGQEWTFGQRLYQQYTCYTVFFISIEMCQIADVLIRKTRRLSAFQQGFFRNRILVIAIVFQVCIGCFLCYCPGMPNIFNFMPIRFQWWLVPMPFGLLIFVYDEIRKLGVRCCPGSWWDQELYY
# T1 sequence (P18434 whole entry partner): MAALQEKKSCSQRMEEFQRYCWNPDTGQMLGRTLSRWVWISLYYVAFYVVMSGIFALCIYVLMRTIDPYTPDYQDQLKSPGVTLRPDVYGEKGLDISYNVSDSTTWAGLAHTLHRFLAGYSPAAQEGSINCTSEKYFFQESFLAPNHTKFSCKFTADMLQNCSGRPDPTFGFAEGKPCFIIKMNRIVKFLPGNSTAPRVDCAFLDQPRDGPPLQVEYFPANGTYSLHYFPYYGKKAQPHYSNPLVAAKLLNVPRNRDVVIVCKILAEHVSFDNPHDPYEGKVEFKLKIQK
substance,measurement,setting,value
"2,4-Dimethyl-3,9-dimethoxy-5H-pyrido[1',2':4,5][1,2,4]thiadiazino[2,3-a]benzimidazol-13-ium tetrafluoroborate (1A) and 2,4-Dimethyl-3,10-dimethoxy-5H-pyrido[1',2':4,5][1,2,4]thiadiazino[2,3-a]benzimidazol-13-ium tetrafluoroborate (1B) (isomeric mixture) [Examples 1A and 1B]",IC50,[1],600 nM
same,percent inhibition of acid secretion (peak inhibitory effect),gastric acid secretion,40%
same,total lengths of lesions in the stomachs,"[2]; 5 min before ethanol, control 11.4 cm",5.3 cm
same,total lengths of lesions in the stomachs,"[2]; 30 min before ethanol, control 10.4 cm",4.4 cm
same,ED50-value (cytoprotective effect),"[2]; oral, ethanol-induced gastric lesions, indicated by lesion reduction at 20 μmol/kg",below 20 μmol/kg

# — US4636499A, “Sulphenamides” (priority 1984, dated 1987)
